This is an account of results in the supplement of paper PMC12076712.

SMILES strings stand for the structures. ± gives the standard deviation of the averaged measurements. Bounds are passed on as bounds.

Some targets named below: ARAF (UniProt P10398); CIT (UniProt O14578); RIPK3 (UniProt Q9Y572); CAMKK2 (UniProt Q96RR4).
Assay in all cases: pIC50, kinobeads binding competition
What all share (settings): cell material: Jurkat lysate

For another assay, the target named is T1, UniProt Q99759.
T1 sequence (whole entry): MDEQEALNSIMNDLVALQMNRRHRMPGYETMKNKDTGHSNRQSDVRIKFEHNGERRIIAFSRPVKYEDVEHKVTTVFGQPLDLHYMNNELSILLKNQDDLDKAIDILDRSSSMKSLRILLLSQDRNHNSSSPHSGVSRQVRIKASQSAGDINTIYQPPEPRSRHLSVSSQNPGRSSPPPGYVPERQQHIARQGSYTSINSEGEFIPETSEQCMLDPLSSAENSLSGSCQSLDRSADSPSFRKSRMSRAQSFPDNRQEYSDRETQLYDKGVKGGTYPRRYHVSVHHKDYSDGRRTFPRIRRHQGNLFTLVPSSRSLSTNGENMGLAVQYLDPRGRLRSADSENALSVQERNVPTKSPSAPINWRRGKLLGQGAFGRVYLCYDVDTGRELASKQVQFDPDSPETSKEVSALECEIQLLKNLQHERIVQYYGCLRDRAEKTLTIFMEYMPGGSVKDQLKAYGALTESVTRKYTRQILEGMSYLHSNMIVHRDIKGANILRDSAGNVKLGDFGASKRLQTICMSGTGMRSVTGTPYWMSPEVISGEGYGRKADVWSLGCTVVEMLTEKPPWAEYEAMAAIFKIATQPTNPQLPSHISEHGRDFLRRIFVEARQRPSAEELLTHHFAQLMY

The target of a further assay is T2, TAOK2 (UniProt Q9UL54).
T2 sequence (whole entry): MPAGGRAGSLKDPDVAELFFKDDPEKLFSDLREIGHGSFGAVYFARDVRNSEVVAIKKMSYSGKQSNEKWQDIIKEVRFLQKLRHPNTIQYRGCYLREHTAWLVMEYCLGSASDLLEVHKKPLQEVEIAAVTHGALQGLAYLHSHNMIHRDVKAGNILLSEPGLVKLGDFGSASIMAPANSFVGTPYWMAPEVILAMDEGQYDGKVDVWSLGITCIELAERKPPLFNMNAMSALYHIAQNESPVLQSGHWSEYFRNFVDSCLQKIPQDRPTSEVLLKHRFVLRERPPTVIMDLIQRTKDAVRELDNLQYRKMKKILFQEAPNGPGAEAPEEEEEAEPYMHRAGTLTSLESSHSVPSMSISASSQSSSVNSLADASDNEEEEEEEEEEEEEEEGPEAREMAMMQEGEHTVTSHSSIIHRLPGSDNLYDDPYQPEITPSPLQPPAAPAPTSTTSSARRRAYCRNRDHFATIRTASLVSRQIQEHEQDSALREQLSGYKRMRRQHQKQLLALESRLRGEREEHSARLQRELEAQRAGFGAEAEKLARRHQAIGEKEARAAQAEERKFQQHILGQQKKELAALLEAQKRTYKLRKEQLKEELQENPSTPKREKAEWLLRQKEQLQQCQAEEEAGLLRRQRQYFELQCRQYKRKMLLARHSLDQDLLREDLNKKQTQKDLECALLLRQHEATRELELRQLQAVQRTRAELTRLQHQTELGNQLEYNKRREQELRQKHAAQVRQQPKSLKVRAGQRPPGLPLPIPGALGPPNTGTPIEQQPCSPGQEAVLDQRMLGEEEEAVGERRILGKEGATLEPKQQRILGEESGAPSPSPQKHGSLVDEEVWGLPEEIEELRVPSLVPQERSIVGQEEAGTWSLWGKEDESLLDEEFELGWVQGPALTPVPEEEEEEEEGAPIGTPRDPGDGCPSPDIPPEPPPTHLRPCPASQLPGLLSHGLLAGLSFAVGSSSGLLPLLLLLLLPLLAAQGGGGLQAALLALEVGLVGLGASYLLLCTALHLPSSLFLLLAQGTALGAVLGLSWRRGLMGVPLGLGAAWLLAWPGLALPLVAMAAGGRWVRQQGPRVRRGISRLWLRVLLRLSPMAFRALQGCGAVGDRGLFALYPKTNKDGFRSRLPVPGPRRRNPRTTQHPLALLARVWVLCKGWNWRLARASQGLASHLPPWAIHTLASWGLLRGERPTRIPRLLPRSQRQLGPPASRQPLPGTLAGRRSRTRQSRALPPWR

Another assay has as its target T3, MERTK (UniProt Q12866).
T3 sequence (whole entry): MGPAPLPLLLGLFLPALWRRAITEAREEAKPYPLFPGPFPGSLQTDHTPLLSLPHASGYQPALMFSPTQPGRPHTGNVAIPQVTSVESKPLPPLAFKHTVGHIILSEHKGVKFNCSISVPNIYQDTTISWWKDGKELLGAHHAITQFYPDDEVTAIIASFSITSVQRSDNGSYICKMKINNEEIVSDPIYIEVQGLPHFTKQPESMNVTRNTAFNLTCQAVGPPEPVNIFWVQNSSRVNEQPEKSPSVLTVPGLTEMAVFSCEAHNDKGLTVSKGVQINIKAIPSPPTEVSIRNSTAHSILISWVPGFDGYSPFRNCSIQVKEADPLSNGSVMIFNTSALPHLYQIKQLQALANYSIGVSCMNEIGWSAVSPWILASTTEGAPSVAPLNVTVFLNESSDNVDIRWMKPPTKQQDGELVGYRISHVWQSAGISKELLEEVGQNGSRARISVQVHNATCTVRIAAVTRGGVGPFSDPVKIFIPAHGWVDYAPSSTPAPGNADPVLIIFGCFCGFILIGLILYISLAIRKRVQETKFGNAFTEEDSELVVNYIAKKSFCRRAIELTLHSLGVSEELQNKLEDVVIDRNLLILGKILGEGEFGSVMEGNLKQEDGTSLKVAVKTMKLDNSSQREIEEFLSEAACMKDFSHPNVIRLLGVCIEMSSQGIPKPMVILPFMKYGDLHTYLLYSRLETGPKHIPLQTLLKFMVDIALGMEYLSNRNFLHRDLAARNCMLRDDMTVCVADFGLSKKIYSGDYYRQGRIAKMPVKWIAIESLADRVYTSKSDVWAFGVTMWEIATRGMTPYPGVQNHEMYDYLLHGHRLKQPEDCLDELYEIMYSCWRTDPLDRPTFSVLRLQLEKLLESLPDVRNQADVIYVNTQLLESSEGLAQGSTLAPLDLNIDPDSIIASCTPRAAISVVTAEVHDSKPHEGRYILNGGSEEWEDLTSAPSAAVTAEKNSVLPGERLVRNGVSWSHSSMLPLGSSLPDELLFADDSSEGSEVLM

What is called pIC50 is the IC50 on a negative log10 scale, so that one unit is a factor of ten. A low value points to a large IC50.

CAMKK2, sequence (Q96RR4 whole entry, looked up): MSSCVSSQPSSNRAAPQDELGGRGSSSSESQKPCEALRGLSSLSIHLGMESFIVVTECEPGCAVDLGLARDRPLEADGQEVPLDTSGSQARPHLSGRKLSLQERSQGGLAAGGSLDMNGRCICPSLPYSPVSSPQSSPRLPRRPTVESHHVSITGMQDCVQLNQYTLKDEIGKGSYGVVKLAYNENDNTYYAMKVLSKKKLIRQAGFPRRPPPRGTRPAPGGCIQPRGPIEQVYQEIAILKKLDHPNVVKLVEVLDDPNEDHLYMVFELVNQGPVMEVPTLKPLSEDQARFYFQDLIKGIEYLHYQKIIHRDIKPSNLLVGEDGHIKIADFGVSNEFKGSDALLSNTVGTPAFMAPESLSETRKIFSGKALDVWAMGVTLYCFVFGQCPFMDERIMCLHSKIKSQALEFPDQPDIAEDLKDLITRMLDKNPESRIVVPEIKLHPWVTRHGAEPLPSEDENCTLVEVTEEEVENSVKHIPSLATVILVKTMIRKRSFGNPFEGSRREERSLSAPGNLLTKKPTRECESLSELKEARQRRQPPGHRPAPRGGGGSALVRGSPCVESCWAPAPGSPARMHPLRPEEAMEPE
CIT, sequence (O14578 whole entry): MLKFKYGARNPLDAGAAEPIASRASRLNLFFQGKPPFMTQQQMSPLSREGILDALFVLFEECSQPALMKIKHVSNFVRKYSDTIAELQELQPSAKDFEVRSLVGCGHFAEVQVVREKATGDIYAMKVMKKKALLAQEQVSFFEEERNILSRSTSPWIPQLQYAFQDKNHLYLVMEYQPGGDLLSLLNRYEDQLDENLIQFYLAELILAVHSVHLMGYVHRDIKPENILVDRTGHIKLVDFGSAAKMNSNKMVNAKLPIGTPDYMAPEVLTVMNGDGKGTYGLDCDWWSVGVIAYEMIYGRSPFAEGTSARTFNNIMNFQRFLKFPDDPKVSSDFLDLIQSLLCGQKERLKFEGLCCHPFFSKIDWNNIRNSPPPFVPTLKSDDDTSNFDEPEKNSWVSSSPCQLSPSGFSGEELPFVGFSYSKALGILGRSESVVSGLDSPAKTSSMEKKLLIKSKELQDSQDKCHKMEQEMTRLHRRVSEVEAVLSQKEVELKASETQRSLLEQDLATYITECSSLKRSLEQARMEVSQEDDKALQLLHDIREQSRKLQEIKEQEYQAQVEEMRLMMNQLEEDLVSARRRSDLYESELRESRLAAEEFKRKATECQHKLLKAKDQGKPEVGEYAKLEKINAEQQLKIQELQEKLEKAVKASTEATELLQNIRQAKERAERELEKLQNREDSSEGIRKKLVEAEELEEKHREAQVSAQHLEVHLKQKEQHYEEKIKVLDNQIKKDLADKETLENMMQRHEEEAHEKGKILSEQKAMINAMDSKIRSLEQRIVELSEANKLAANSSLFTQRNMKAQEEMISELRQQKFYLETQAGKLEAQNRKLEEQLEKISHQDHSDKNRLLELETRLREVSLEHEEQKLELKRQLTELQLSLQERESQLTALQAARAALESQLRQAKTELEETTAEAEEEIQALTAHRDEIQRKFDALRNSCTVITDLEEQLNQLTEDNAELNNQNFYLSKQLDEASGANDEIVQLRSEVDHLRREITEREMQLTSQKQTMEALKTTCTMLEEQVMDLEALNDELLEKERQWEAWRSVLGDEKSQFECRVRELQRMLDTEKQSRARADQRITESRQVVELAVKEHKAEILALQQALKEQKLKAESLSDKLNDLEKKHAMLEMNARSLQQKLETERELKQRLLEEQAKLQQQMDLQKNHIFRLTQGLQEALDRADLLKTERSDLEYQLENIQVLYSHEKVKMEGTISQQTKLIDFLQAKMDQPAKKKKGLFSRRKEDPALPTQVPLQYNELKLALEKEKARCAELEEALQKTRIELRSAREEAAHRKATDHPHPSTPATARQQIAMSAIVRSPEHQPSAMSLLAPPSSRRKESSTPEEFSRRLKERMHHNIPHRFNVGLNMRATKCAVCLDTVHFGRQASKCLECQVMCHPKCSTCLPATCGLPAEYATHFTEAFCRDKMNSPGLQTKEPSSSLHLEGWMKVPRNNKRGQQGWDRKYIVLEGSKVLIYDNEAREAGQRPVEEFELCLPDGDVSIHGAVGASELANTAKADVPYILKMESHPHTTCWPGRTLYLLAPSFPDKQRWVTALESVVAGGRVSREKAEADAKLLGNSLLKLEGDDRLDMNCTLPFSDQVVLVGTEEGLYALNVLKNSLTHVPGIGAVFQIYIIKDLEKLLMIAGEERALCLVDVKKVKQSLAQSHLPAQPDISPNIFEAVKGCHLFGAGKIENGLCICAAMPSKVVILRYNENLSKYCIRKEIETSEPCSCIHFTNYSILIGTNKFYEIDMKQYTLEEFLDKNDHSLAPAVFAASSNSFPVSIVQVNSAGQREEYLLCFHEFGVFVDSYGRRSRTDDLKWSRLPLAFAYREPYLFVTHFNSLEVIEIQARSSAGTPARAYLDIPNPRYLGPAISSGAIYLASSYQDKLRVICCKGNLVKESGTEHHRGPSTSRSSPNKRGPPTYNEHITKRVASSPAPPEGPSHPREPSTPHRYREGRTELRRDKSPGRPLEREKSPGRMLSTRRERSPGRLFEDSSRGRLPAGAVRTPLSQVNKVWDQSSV
RIPK3, sequence (Q9Y572 whole entry, looked up): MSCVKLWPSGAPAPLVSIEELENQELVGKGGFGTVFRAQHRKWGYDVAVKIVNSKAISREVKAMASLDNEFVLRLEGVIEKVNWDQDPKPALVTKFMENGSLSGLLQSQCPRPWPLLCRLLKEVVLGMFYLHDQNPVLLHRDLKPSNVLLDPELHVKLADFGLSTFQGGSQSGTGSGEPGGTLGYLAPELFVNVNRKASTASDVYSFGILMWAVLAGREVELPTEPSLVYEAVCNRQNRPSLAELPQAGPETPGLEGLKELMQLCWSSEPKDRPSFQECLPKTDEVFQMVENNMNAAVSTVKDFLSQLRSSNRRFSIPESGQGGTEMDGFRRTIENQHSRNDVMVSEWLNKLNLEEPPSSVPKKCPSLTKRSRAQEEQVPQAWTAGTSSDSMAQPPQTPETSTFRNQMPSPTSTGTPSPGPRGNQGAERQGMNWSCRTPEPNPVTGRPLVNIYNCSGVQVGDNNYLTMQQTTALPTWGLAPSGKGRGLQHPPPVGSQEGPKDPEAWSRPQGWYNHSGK
ARAF, sequence (P10398 whole entry): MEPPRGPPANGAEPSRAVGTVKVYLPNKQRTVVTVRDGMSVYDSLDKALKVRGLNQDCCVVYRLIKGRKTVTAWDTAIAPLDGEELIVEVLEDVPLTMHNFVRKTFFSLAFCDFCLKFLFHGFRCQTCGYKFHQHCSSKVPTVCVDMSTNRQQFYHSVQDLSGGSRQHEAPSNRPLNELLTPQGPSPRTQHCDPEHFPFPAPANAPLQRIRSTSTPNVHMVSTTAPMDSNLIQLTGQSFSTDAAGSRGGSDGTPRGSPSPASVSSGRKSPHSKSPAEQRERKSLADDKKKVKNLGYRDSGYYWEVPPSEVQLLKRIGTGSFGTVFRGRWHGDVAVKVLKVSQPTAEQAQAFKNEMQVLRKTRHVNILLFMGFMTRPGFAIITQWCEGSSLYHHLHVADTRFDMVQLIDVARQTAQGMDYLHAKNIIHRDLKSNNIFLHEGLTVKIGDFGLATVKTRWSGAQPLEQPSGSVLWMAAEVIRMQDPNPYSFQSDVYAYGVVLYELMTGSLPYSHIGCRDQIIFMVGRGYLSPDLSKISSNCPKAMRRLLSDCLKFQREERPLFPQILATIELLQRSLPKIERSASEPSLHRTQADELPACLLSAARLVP

As to `CCc1cnn2c(NCc3ccc[n+]([O-])c3)cc(N3CCCC[C@H]3CCO)nc12` [dinaciclib], the pIC50 at ARAF was < 4.52; at CIT, < 4.52; at RIPK3, < 4.52; at UniProt Q99759, < 4.52; at TAOK2, 5.6 ± 0.085; on CAMKK2 it was 5.245 ± 0.035. The pIC50 on MERTK is < 4.52.
